Data taken from patent US20160045531A1, “COMBINATION THERAPY FOR TREATING CANCER” (EPIZYME, INC., priority 2014, published 2016).

Key:
SKM-1 cells = experiment: Proliferation assay and calculation of synergism (Example 5), SKM-1; details: combination with Compound A2
Description: The acute myelogenous leukemia cell line MV4-11 (MLL-AF4) (CRL-9591) was obtained from American Type Culture Collection (ATCC), Manassas, Va. and both MOLM-13 (MLL-AF9) (ACC 554) and SKM-1 (ACC 547) cells were obtained from Leibniz Institute DSMZ-German Collection of Microorganisms and Cell Cultures, Braunschweig, Germany. MV4-11 cells were maintained in IMDM supplemented with 10% fetal bovine serum. MOLM-13 and SKM-1 cells were maintained in Roswell Park Memorial Institute medium (RPMI) supplemented with 10% fetal bovine serum. They were cultured in flasks or plates in a humidified 5% CO2 atmosphere.
(§5) Proliferation studies were performed using MOLM-13, MV4-11 and SKM-1 cell lines in vitro to evaluate the cancer cell killing effect of a combination of two agents together on cell growth. Initial proliferation studies were performed to determine the IC50 values of a given compound in each cell line. The cell counts were measured by ATP quantitation using the Promega Cell Titer Glo kit and luminescence values correspond to the amount of ATP in a given well.
(§6) These studies were performed to evaluate both the combinatorial effect of compounds on cell killing and the durability of the effect by washing out one of the agents.
(§7) Compounds evaluated for synergy in the co-treatment phase were tested in a range which was bracketed around the IC50's. The compounds were plated to a 96 well plate in a matrix format which includes increasing concentrations of each drug in the combination in a constant ratio, in addition to the effect of each compound alone in the study. […] Maximum and minimum inhibition (DMSO alone) controls were used in each plate to calculate fraction affected (Fa) of a test well. DMSO concentration was kept at 0.1% v/v. The drug combination analysis was performed utilizing the Chou-Talalay method. Synergy was determined using the software package Calcusyn by Biosoft. The combination index (CI) is the term used to describe the level of synergy or antagonism in a given test system. A combination index less than one indicates synergy, and a CI greater than one indicates antagonism.
(§8) The drug combination analysis was performed using the Chou-Talalay method. Graphs representing values of combination index (CI) versus Fractional effect (Fa) known as Fa-CI plots were generated and synergy was evaluated. Drug synergy was statistically defined by CI values less than 1, antagonism by CI>1 and additive effect by CI equal to 1.

MV4-11 (MLL-AF4) = experiment: Proliferation assay and calculation of synergism (Example 5), MV4-11; type: cell-based, human; details: for Combination with Compound A2, MV4-11 (MLL-AF4): 7 Day Cotreatment Model, Chou-Talalay CI; for Combination with Compound A2, pre-treatment model with washout, MV4-11: Compound A2 washed out prior to the addition of the SOC agent; for Combination with Compound A2, pre-treatment model, MV4-11: no Compound A2 washout
Protocol: (§9) MV4-11 cells were maintained in IMDM supplemented with 10% fetal bovine serum. […] They were cultured in flasks or plates in a humidified 5% CO2 atmosphere.
as §5, §6, §7, §8

MOLM-13 (MLL-AF9) = experiment: Proliferation assay and calculation of synergism (Example 5), MOLM-13; type: cell-based, human; details: for Combination with Compound A2, MOLM-13 (MLL-AF9): 7 Day Cotreatment Model, Chou-Talalay CI; for Combination with Compound A2, pre-treatment model with washout, MOLM-13: Compound A2 washed out prior to the addition of the SOC agent; for Combination with Compound A2, pre-treatment model, MOLM-13: no Compound A2 washout
Protocol: as §9, §5, §6, §7, §8

[1] = tested on: SKM-1 (non-MLL-rearranged AML); experiment: Combination proliferation study with Compound A2 (Examples 2/3), SKM-1; type: cell-based, human; details: in combination with Compound A2
Protocol: (§1) The HP-D300 digital dispenser (Tecan) was used to dispense compounds in a combinatorial matrix. […] Cell viability was measured via ATP content using CellTiter-Glo® (Promega).
(§2) Viability was determined using CellTiter-Glo® (Promega).

[2] = tested on: MV4-11 (MLL-AF4) cell line; experiment: Combination proliferation study with Compound A2 (Example 1), MV4-11; type: cell-based, human; details: 7 Day Cotreatment; Chou-Talalay CI
Description: (§3) The acute myelogenous leukemia cell lines MV4-11 (MLL-AF4) and MOLM-13 (MLL-AF9) were obtained from American Type Culture Collection (ATCC; Rockville, Md.) and Deutsche Sammlung von Mikroorganismen and Zellkulturen (DSMZ; Braunschweig, Germany) respectively. […] Further, strong synergism is achieved when the CI value falls below 0.3.

[3] = tested on: MV4-11 (MLL-AF4 expressing acute biphenotypic leukemia cell line); experiment: Combination proliferation study with Compound A2 (Examples 2/3), MV4-11; type: cell-based, human; details: in combination with Compound A2; Chou-Talalay CI
Protocol: as §1, §2

[4] = tested on: Molm-13 (MLL-AF9 expressing acute myeloid leukemia); experiment: Combination proliferation study with Compound A2 (Examples 2/3), MOLM-13; type: cell-based, human; details: for Combination studies with Compound A2, MOLM-13 MLL-AF9: in combination with Compound A2, Chou-Talalay CI
Protocol: as §1, §2

[5] = tested on: MOLM-13 (MLL-AF9) cell line; experiment: Combination proliferation study with Compound A2 (Example 1), MOLM-13; type: cell-based, human; details: 7 Day Cotreatment; Chou-Talalay CI
Description: as §3

MOLM-13 cells [6] = experiment: Pre-treatment model with reverse order of addition (Ara-C first), MOLM-13; type: cell-based, human; details: Ara-C 3 days
Protocol: MOLM-13 cells were pretreated with 9 concentrations of Ara-C or DMSO for 3 days.
Cell viability was measured via ATP content using CellTiter-Glo® (Promega).
In addition, the effect of sequence of addition of compounds was studied by measuring the ten day proliferation of cells pretreated with Ara-C in a 3+7 model. This experiment was performed by first pretreating MOLM-13 cells with increasing concentrations of Ara-C for 3 days.

MOLM-13 cells [7] = experiment: CD11b and CD14 expression by flow cytometry, MOLM-13; type: cell-based, human
Protocol: (§4) On Day 0 MOLM-13 cells are seeded at 3,000 cells/mL. On Day 7 and Day 10 MOLM-13 cells are counted and reseeded at 50,000 cells/mL. […] On Day 10 They were redosed again. On Day 14 the experiment was terminated.
The cells were prepared by washing twice in PBS, followed by fixation in 4% formaldehyde for ten minutes at 37° C. After fixation cells were washed and blocked with blocking buffer for 10 minutes at room temperature. Cells were then incubated in presence of anti-CD14, anti-CD11b or anti-IgG antibody for 1 hour at room temperature while rotating. Cells were washed, re-suspended in PBS and 5,000 events were analyzed using ExpressPro software on the GuavaCyte Plus System.

MOLM-13 cells [8] = experiment: Flow cytometric analysis of cell cycle and Annexin V, MOLM-13; type: cell-based, human; details: MOLM-13
Protocol: as §4
To evaluate the fraction of cells in each cell cycle, flow cytometric analysis was performed. FACS analysis for detection of cell death by apoptosis, and cell cycle was performed.
Samples were analyzed using the Guava EasyCyte Plus System (Millipore). Cells for cell cycle analysis were pelleted by centrifugation at 200×g for 5 minutes at 4° C., washed twice with ice cold PBS then fixed with 70% ice cold ethanol. All samples were analyzed together at end of experiment. Following fixation cells were washed with PBS and stained with the Guava cell cycle reagent (Millipore 4500-0220) for 30 minutes. Samples were analyzed using the Guava EasyCyte Plus System (Millipore).

Row | SMILES | Combination with Compound A2, MV4-11 (MLL-AF4) (MV4-11 (MLL-AF4)) | Combination with Compound A2, MOLM-13 (MLL-AF9) (MOLM-13 (MLL-AF9)) | Combination studies with Compound A2, SKM-1 AML: Non-rearranged [1] | Combination effect with Compound A2 on proliferation, MV4-11 [2] | also measured
1 | Nc1ncn([C@@H]2O[C@H](CO)[C@@H](O)[C@H]2O)c(=O)n1 [azacytidine, Azacytidine] | synergistic anti-proliferative activity | synergistic anti-proliferative activity |  |  | Effect of Compound A2 on the antiproliferative activity of the second agent in SKM-1 (SKM-1 cells): no impact on the antiproliferative activity
2 | CC[C@]1(O)C[C@H]2CN(CCc3c([nH]c4ccccc34)[C@@](C(=O)OC)(c3cc4c(cc3OC)N(C=O)[C@H]3[C@@](O)(C(=O)OC)[C@H](OC(C)=O)[C@]5(CC)C=CCN6CC[C@]43[C@@H]65)C2)C1 [Vincristine, vincristine] | Additive (additive effect by CI equal to 1) | Additive (additive effect by CI equal to 1) |  |  | 
3 | CN(Cc1cnc2nc(N)nc(N)c2n1)c1ccc(C(=O)N[C@@H](CCC(=O)O)C(=O)O)cc1 [Methotrexate, methotrexate] | Additive (additive effect by CI equal to 1) | Antagonistic/Additive |  |  | 
4 | COc1cc2c(cc1-c1c(C)noc1C)ncc1[nH]c(=O)n([C@H](C)c3ccccn3)c12 [IBET-151] |  |  | IC50 not achieved | Synergy (A combination index less than one indicates synergy) | 
5 | CC(C)(C)c1cc(NC(=O)Nc2ccc(-c3cn4c(n3)sc3cc(OCCN5CCOCC5)ccc34)cc2)no1 [Quizartinib] |  |  |  | synergy | 
6 | Nc1ncn([C@H]2C[C@H](O)[C@@H](CO)O2)c(=O)n1 [Decitabine, decitabine] |  |  | No Combination |  | 
7 | CC(C)C[C@H](NC(=O)[C@H](Cc1ccccc1)NC(=O)c1cnccn1)B(O)O [Velcade, bortezomib] | Combination Benefit | Combination Benefit |  |  | 
8 | C[C@]12C=CC(=O)C=C1CC[C@@H]1[C@@H]2[C@@H](O)C[C@@]2(C)[C@H]1CC[C@]2(O)C(=O)CO [Prednisolone, prednisolone] | Antagonistic (antagonism by CI>1) | Antagonistic (antagonism by CI>1) |  |  | 
9 | Cc1[nH]c2ccccc2c1CCNCc1ccc(/C=C/C(=O)NO)cc1 [Panobinostat] | Antagonistic (antagonism by CI>1) |  |  |  | 
10 | Nc1ccn([C@@H]2O[C@H](CO)[C@@H](O)[C@@H]2O)c(=O)n1 [cytarabine] |  |  | did not act synergistically |  | Effect of Compound A2 on the antiproliferative activity of the second agent in SKM-1 (SKM-1 cells): did not affect the antiproliferative activity; Combination with Compound A2, pre-treatment model with washout, MV4-11 (MV4-11 (MLL-AF4)): synergistic anti-proliferative activity was maintained; Combination with Compound A2, pre-treatment model, MV4-11 (MV4-11 (MLL-AF4)): synergistic antiproliferative activity; Combination studies with Compound A2, MV4-11 MLL-AF4 [3]: acts synergistically; Combination with Compound A2, Compound A2 removed at day 7 ([4]; Molm-13, Compound A2 removed at day 7 prior to cytarabine): durable combination benefit; Combination studies with Compound A2, MOLM-13 MLL-AF9 [4]: acts synergistically; Combination with Compound A2, pre-treatment model with washout, MOLM-13 (MOLM-13 (MLL-AF9)): synergistic anti-proliferative activity was maintained; Combination with Compound A2, pre-treatment model, MOLM-13 (MOLM-13 (MLL-AF9)): synergistic antiproliferative activity
11 | N[C@@H]1C[C@H]1c1ccccc1 (racemic) [Tranylcypromine] |  |  |  | synergy | Combination effect with Compound A2 on proliferation, MOLM-13 [5]: synergy
12 | O=C1c2c(O)ccc(O)c2C(=O)c2c(NCCNCCO)ccc(NCCNCCO)c21 [Mitoxantrone] |  |  |  | Synergy (A combination index less than one indicates synergy) | 
13 | Nc1ncn([C@@H]2O[C@H](CO)[C@@H](O)[C@H]2O)c(=O)n1 [Azacitidine, azacitidine] |  |  | No Combination |  | 
14 | Nc1cccc2c1CN(C1CCC(=O)NC1=O)C2=O (stereo not drawn) [Lenalidomide, lenalidomide] | Combination Benefit | Combination Benefit |  |  | 
15 | Cc1sc2c(c1C)C(c1ccc(Cl)cc1)=N[C@@H](CC(=O)OC(C)(C)C)c1nnc(C)n1-2 [JQ1] | Additive (additive effect by CI equal to 1) | Additive (additive effect by CI equal to 1) |  |  | 
16 | O=C(CCCCCCC(=O)Nc1ccccc1)NO [Vorinostat] | Antagonistic (antagonism by CI>1) | Additive/Synergy |  |  | 
17 | CC1(C)CCC(c2ccc(Cl)cc2)=C(CN2CCN(c3ccc(C(=O)NS(=O)(=O)c4ccc(N[C@H](CCN5CCOCC5)CSc5ccccc5)c(S(=O)(=O)C(F)(F)F)c4)cc3)CC2)C1 [Navitoclax] |  |  |  | synergy | Combination effect with Compound A2 on proliferation, MOLM-13 [5]: synergy
18 | Nc1ncn([C@@H]2O[C@H](CO)[C@@H](O)[C@H]2O)c(=O)n1 [Vidaza] |  |  |  | Synergy (A combination index less than one indicates synergy) | 
19 | COc1cccc2c1C(=O)c1c(O)c3c(c(O)c1C2=O)C[C@@](O)(C(C)=O)C[C@@H]3O[C@H]1C[C@H](N)[C@H](O)[C@H](C)O1 [Daunorubicin, daunorubicin] |  |  | No Combination | Synergy (A combination index less than one indicates synergy) | Effect of Compound A2 on the antiproliferative activity of the second agent in SKM-1 (SKM-1 cells): did not affect the antiproliferative activity; Combination studies with Compound A2, SKM-1 AML: Non-rearranged ([1]; listed as daunorubicin): did not act synergistically; Combination with Compound A2, pre-treatment model with washout, MV4-11 (MV4-11 (MLL-AF4)): synergistic anti-proliferative activity was maintained; Combination with Compound A2, pre-treatment model, MV4-11 (MV4-11 (MLL-AF4)): synergistic antiproliferative activity; Combination studies with Compound A2, MV4-11 MLL-AF4 [3]: acts synergistically; Combination studies with Compound A2, MOLM-13 MLL-AF9 [4]: acts synergistically; Combination with Compound A2, pre-treatment model with washout, MOLM-13 (MOLM-13 (MLL-AF9)): synergistic anti-proliferative activity was maintained; Combination with Compound A2, pre-treatment model, MOLM-13 (MOLM-13 (MLL-AF9)): synergistic antiproliferative activity
20 | Nc1ccn([C@@H]2O[C@H](CO)[C@@H](O)[C@@H]2O)c(=O)n1 [Ara-C, cytarabine] | Strong Synergy |  | No Combination | Synergy (A combination index less than one indicates synergy) | Combination with Compound A2, Ara-C pretreatment then cotreatment (MOLM-13 cells [6]; then Compound A2 and Ara-C 7 days): Synergy; Combination with Compound A2, Ara-C pretreatment then washout (MOLM-13 cells [6]; washed out, then Compound A2 7 days): Combination benefit is maintained; Combination studies with Compound A2, MV4-11 MLL-AF4 [3]: Strong; Differentiation markers CD11b and CD14, combination with Compound A2 (MOLM-13 cells [7]): time and concentration dependent up-regulation; Differentiation markers CD11b and CD14, single agent (MOLM-13 cells [7]): time and concentration dependent up-regulation; Apoptosis induction over 14 day course, single agent (MOLM-13 cells [8]; 156 nM Compound A2 or 63 nM Ara-C): modest increase in apoptotic cell population; Apoptosis induction over 14 day course, combination with Compound A2 (MOLM-13 cells [8]; 156 nM Compound A2 plus 63 nM Ara-C): enhance apoptosis; Sub-G1 cell population, combination with Compound A2 (MOLM-13 cells [8]; 156 nM Compound A2 plus 63 nM Ara-C, 10 and 14 days): significant increase in the population of sub-G1 cells; Sub-G1 cell population, single agent (MOLM-13 cells [8]; 14 day treatment, 156 nM Compound A2 or 63 nM Ara-C): minimal effect
